The source of these data is patent US9023837B2, “Androgen induced oxidative stress inhibitors” (Colby Pharmaceutical Company, priority 2010, dated 2015).

“And” between values parts separate entries of the source, which are not always exact repeats. Identical values can stand only once. “Also recorded” adds a separate entry of the source.

One series has as its system SSAT promoter. Put plainly: SSAT promoter luciferase reporter in LNCaP cells. The note with it: 1 nM R1881, 72 h. The series is classed as cell-based, human. Here is the method:
The full length (FL) SSAT promoter sequence, kindly provided by Dr. Robert Casero (Johns Hopkins University, Baltimore, Md.), was amplified and cloned into pGL4-basic vector (Promega) with a firefly luciferase reporter gene. This vector, pGL4-SSAT-luc, was transiently transfected into our published (20) JunD-silenced (siJunD) and vector control LNCaP cell lines. Briefly, 5×10^5 siJunD or vector control LNCaP cells were seeded, then transfected one day later with […] pGL4-SSAT-luc DNA construct using Lipofectamine2000 (Invitrogen). After transfection, cells were treated with 1 nM R1881 or left untreated for 72 h, then lysed. Luciferase activity was measured in cell lysates by a luciferase assay system kit (Promega) following the manufacturer-supplied protocol.
The effect of AR activation by androgen on transcriptional activity of full length SSAT promoter and the necessity of JunD for such effect was studied in LNCaP cells stably transfected with either junD silenced (siJunD) or control vector that were then transiently transfected with a full length SSAT promoter-firefly luciferase reporter vector (FLSSAT-luc) followed by androgen treatment (FIGS. 4A,B). Androgen treatment (1 nM R1881) caused a significant>16-fold increase in SSAT promoter activity in vector control LNCaP cells (Control) compared to corresponding untreated cells (FIG. 4A, P=0.03). […]

The subject of the next series is SSAT mRNA. Put plainly: SSAT mRNA by qRT-PCR in LNCaP cells. The series is classed as cell-based, human. Here is the method: Quantitative RT-PCR analysis of SSAT mRNA levels are performed.
The effect of AR activation by androgen on transcriptional activity of full length SSAT promoter and the necessity of JunD for such effect was studied in LNCaP cells stably transfected with either junD silenced (siJunD) or control vector that were then transiently transfected with a full length SSAT promoter-firefly luciferase reporter vector (FLSSAT-luc) followed by androgen treatment (FIGS. 4A,B). Androgen treatment (1 nM R1881) caused a significant>16-fold increase in SSAT promoter activity in vector control LNCaP cells (Control) compared to corresponding untreated cells (FIG. 4A, P=0.03). […] There is an androgen-induced increase in SSAT mRNA (˜10-fold) in siJunD cells, but this increase is much less than that observed in vector control cells (˜25-fold).
Background: Real-time PCR tracks product formation cycle by cycle.

The target in a further series is JunD-AR complex (Homo sapiens, UniProt P10275). Conditions: Hep3B, 2 nM R1881, 48 h.
In another series the target is AR-JunD immunocomplex (Homo sapiens, UniProt P10275, T878A). Conditions: IP:JunD/WB:AR, 1 nM R1881, 72 h, normalized to β-actin.
Series [1] deals with LNCaP cells. Put plainly: growth inhibition of LNCaP cells. On the set-up: concentration range of cell growth inhibition: unit not given here. It is filed as cell-based, human. Conditions: presence and absence of R1881. Here is the method:
(§1) Culture conditions for LNCaP androgen response studies included use of cells passage 40-90, hormone depleted media containing 4% charcoal-stripped FBS plus 1% non-stripped FBS (F1C4), and synthetic androgen R1881 (methyltrienolone; NEN, Boston, Mass.) at 1 nM for maximal induction of JunD and ROS as described before (17,19,20). For AR-JunD interaction studies in AR-transfected Hep3B cells, R1881 was used at 2 nM in F1C4 medium to maximally induce the AR.
(§2) Graded concentrations of each of the 8-10 designed peptides identified herein are further tested for their ability to inhibit growth of androgen-dependent LNCaP and LAPC-4 cells using a DNA fluorescence assay and androgen-induced ROS using DCFH dye oxidation assay.

Series [2] has as its target T1, Androgen Receptor Ligand Binding Domain (AR-LBD) (Rattus norvegicus, UniProt P15207).
T1 sequence (P15207 651-882 limits assumed): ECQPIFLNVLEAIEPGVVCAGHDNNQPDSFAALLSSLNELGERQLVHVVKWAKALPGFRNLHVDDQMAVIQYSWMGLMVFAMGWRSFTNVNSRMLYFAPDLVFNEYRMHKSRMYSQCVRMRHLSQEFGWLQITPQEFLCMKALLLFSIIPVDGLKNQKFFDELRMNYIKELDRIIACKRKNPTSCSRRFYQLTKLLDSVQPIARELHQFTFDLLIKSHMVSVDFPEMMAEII
Kind of series: fluorescence polarization assay for AR-LBD binding. The note with it: bicalutamide positive control. (In general: Fluorescence polarisation rises when a labelled molecule tumbles more slowly, as on binding a larger partner.)
Source text: Binding of bicalutamide with AR-LBD was used as a positive control.
Bicalutamide is used as a positive control.

A further series concerns human CaP cells. Put plainly: androgen-induced ROS production in human CaP cells. It is filed as cell-based. Conditions: pretreatment. The text has this:
(§3) Described herein are molecules, such as for example, N,N′-butadienyl-butanediamine inhibitor of APAO or one of its pro-drugs or analogs, as shown in the figures disclosed herein in this application. […] SSAT promoter sequence, however, contains no AR-binding element (ARE).

For series [3], the system named is TRansgenic Adenocarcinoma in Mouse Prostate (TRAMP) animals. Kind of series: TRAMP mouse model of prostate cancer. The series is classed as in vivo.
Source text: as §3

Series [4] concerns LNCaP cells. Kind of series: DCF dye oxidation assay, ROS in LNCaP cells. The series is classed as cell-based, human.
Source text: Described herein are tests for the effect of these three compounds on the androgen-induced ROS production in androgen-dependent LNCaP cells using the DCF dye oxidation assay (see the complete proposal). All data were normalized to the DCF dye fluorescence of control untreated LNCaP cells and expressed as percent of control.
as §1, §2

JunD-AR complex, sequence (P10275 whole entry): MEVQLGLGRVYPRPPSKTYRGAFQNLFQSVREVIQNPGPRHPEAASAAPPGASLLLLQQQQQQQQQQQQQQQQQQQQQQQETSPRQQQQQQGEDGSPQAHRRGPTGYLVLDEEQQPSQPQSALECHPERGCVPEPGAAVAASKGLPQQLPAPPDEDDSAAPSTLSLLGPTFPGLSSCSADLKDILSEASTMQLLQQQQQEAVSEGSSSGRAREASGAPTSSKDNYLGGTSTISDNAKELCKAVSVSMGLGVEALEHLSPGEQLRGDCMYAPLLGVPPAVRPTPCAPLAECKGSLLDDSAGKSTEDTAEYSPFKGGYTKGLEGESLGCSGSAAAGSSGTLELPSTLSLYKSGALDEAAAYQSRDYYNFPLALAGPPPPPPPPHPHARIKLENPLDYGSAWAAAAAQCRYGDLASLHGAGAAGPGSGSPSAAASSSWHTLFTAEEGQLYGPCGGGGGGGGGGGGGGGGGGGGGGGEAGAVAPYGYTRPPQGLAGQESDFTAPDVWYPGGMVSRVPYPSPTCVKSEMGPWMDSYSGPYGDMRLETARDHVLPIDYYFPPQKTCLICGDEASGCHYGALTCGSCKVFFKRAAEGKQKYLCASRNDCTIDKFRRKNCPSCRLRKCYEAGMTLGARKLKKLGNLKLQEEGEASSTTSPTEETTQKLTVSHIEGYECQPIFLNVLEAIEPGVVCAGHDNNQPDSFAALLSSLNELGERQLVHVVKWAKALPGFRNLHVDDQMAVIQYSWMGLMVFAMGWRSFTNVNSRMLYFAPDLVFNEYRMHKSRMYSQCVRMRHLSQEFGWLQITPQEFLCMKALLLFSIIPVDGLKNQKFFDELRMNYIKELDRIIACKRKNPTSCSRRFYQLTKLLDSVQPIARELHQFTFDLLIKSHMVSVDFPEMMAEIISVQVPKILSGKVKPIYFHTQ
JunD-AR complex, sequence (P17535 whole entry partner): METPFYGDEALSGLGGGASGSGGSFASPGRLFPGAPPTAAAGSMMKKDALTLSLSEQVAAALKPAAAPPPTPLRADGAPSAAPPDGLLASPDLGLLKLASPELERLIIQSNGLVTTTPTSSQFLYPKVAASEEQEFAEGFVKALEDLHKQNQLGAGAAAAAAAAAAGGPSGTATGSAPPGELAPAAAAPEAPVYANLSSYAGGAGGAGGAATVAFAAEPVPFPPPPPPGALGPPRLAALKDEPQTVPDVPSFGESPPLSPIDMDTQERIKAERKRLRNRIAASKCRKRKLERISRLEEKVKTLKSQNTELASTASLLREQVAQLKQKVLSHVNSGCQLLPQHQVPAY
AR-JunD immunocomplex, sequence (P10275 whole entry T878A): as the sequence (P10275 whole entry) above, with T878A counted along it
AR-JunD immunocomplex, sequence (P17535 whole entry partner): as the sequence (P17535 whole entry partner) above
Method for AR-JunD immunocomplex: For whole cell lysates, LNCaP cells were lysed using modified RIPA buffer containing complete protease inhibitors (Roche Applied Sciences, Indianapolis, Ind.). Nuclear and cytoplasmic fractions were prepared and checked for purity using NE-PER Nuclear and Cytoplasmic extraction reagents (Thermo Scientific, Pierce Biotechnology, Rockford, Ill.) following manufacturer-supplied protocols. For immunoprecipitation, lysates were pre-cleared by incubation with 50% Protein A-agarose slurry (Pierce, Rockford, Ill.). Six g of AR antibody and 500 μl pre-cleared lysate (500 μg total protein) were mixed and rocked overnight at 4° C. The immunocomplex was captured with 100 μl of 50% protein A-agarose slurry, then analyzed by western blotting using JunD antibody. The same immunoprecipitation procedure was repeated for capturing the immunocomplex using JunD antibody and western blotting using AR antibody. Proper controls with IgG and protein A-agarose were run in parallel.
To specifically investigate the effect of androgen, LNCaP cell lysates were prepared after incubation with 1 nM R1881 for 72 h and analyzed for co-immunoprecipitation of AR and JunD.
Method for JunD-AR complex: The two vectors were co-transfected into Hep3B liver carcinoma cells with no AR background.
5×10^5 Hep3B cells were seeded, then one day later co-transfected with 3 g each of Gluc1-AR and JunD-Gluc2 constructs, or transfected with Gluc1-AR or JunD-Gluc2 alone as negative controls using Lipofectamine 2000 reagent (Invitrogen), following the manufacturer-supplied protocol. Two to three hours after transfection, cells were washed and refed DMEM without serum and treated with 2 nM R1881 for 48 h prior to collecting cell lysates. Corresponding untreated cells were used as negative controls.
Gaussia luciferase activity was measured in 25 μl of Hep3B cell lysates from R1881-treated or untreated control cells using a Gaussia luciferase assay kit from New England Biolabs (Ipswich, Mass.), following the manufacturer-supplied protocol.

For the compound `C[C@]1(O)CC[C@H]2[C@@H]3CCC4=CC(=O)CCC4=C3C=C[C@@]21C` [R1881, methyltrienolone], the “increase in SSAT promoter activity” value is “small increase” with SSAT promoter (siJunD LNCaP) and > 16 fold in the series with SSAT promoter (vector control LNCaP). The “increase in SSAT mRNA (treated/untreated)” value in the series on SSAT mRNA (JunD silenced (siJunD) LNCaP cells) is ~10 fold; with SSAT mRNA (vector control LNCaP cells), ~25 fold and > 25 fold. Moreover, on JunD-AR complex, the “increase in reconstituted Gaussia luciferase activity versus untreated cells” value is ~10 fold and > 5 fold. Besides, the “increase of AR-JunD immunocomplex in nuclear fraction” value on AR-JunD immunocomplex is “approximately 3 fold”.

As to `O=C(O)CN(CC(=O)O)N1C(=O)c2ccccc2C1=O` [2,2′-(1,3-dioxoisoindolin-2-ylazanediyl)diacetic acid], the “concentration of growth inhibition” value with LNCaP cells [1] was “sub-micromolar”. The “AR-LBD binding / anti-androgenic properties” value in series [2] is reported as “no AR-LBD binding property; also recorded: no anti-androgenic properties”.

`C=C=CCNCCCCNCC=C=C` [N,N′-butadienyl-butanediamine]: the “androgen-induced ROS production” value with human CaP cells is “completely blocks”. Besides, in series [3], the CaP progression result is listed as “significantly prevents” and the “oxidative stress in the prostate” value is “markedly reduces”.

`NN(CC(=O)O)CC(=O)O`: the “reduction of ROS levels in cells not treated with R1881” value in the series with LNCaP cells [4] (LNCaP without R1881) is given as “weak activity in reducing ROS levels”. The “concentration of growth inhibition” value with LNCaP cells [1] is listed as “sub-micromolar”. In [2], the “AR-LBD binding / anti-androgenic properties” value is “no AR-LBD binding property; also recorded: no anti-androgenic properties”.

Turning to `COC(=O)CN(N)CC(=O)OC` [dimethyl 2,2′-(hydrazine-1,1-diyl)diacetate], the melting point – broadly, the temperature of the solid-liquid transition – came to 166 °C. Moreover, the “effect on ROS levels under any condition” value in the series on LNCaP cells [4] (LNCaP with or without R1881) was “no effect on the ROS levels”. Also, the “concentration range of cell growth inhibition” value with LNCaP cells [1] is reported as 1-10. Also, in [2], the “AR-LBD binding / anti-androgenic properties” value is recorded as “interaction with the AR-LBD that is comparable with that of bicalutamide”.
